The values below come from US7399775B2, “β-amyloid protein production/secretion inhibitor” (Daiichi Pharmaceutical Co., Ltd., priority 2001, dated 2008).

pEC50: −log10 of the molar value. Like-named read-outs stand apart in the source and are kept apart here.

The pEC50 is the negative decadic logarithm of the EC50, by convention in mol/L. For orientation: melting point means the temperature of the solid-liquid transition.

Series [1] relates to β-amyloid protein (Aβ) production/secretion in E35 cells (H4 cells transfected with APP751). In words: Cell-based assay for inhibition of production or secretion of β-amyloid protein (sandwich ELISA of Aβ in culture medium). Also on record: species or system human. Particulars: 24 h with compound, Aβ in medium by sandwich ELISA, read-out: Activity (EC50 class, inhibition of Aβ secreted in culture medium). The procedure: Cell-Based Assay for Screening of a Compound Which Inhibits Production or Secretion of β-Amyloid Protein
E35 cells which were established by transfecting APP751 gene which is a wild type human β-amyloid protein precursor into human glioma cells (H4 cells), were used to analyze inhibitory activity of a compound against β-amyloid production. The amount of β protein (Aβ) secreted in a culture medium was measured by the sandwich enzyme-linked imunosorbent assay.
E35 cells were seeded in Dulbecco's Modified Eagle's Medium containing 10% inactivated fetal bovine serum on 96-well plates and cultured in humidified air and 5% CO2 at 37° C. in a CO2 incubator. Twenty-four hours after seeding of the cells, a test compound dissolved in DMSO was added to the medium. The DMSO solution of the compound was prepared so as to give the final concentration of DMSO in the medium 0.05%. The cells were cultured for additional twenty-four hours, and then the cultured medium was collected. The medium collected was applied to a 96-well ELISA plate on which a monoclonal antibody 25-1, which recognized Aβ25-35, was immobilized, followed by the incubation at 4° C. for 16 to 20 hours. After washing with a phosphate buffer (pH 7.4), a biotinylated monoclonal antibody MA32-40, which recognizes Aβ1-8, was added to the plate, and the plate was incubated at 4° C. for 2 hours. Then alkaline phosphatase-conjugated streptavidin was added to the plate. Alkaline phosphatase activity was measured by a […] assay using BlouPhos (manufactured by KPL) as a substrate. An amount of Aβ in the medium was calculated using a calibration curve separately created. EC50 of the test compound was presented as the concentration that gives 50% inhibitory activity compared to the control cells which were not treated with the compound.

`CC(CCC[S+](C)[O-])C(c1cc(F)ccc1F)S(=O)(=O)c1ccc(Cl)cc1` (stereo not drawn) [Example 45, 2-[1-[(4-Chlorophenyl)sulfonyl]-2-methyl-5-(methylsulfinyl)pentyl]-1,4-difluorobenzene]: the melting point was 107 to 112 °C. Besides, the pEC50 in series [1] (Homo sapiens, 24 h) was at least 7.30.
In the same order, the values of `CC(CCCS(C)(=O)=O)C(c1cc(F)ccc1F)S(=O)(=O)c1ccc(Cl)cc1` (stereo not drawn) [Example 46, 2-[1-[(4-Chlorophenyl)sulfonyl]-2-methyl-5-(methylsulfonyl)pentyl]-1,4-difluorobenzene] are 115 to 117 °C and 6.30 to 7.30.
In turn, `CC(CCCS(C)(=O)=O)C(c1cc(F)ccc1F)S(=O)(=O)c1ccc(Cl)cc1` (stereo not drawn) [Example 47, 2-[1-[(4-Chlorophenyl)sulfonyl]-2-methyl-5-(methylsulfonyl)pentyl]-1,4-difluorobenzene] had a melting point of 142 to 144 °C. The pEC50 in series [1] is at least 7.30.
`O=S(=O)(c1ccc(Cl)cc1)C1(c2cc(F)ccc2F)CCOCC1` [Example 48, 4-[(4-Chlorophenyl)sulfonyl]-4-(2,5-difluorophenyl)tetrahydropyrane] displayed a melting point of 157 to 160 °C. Besides, in series [1] (Homo sapiens, 24 h), the pEC50 was at least 7.30.
In the same order, the values of `Cc1cccnc1C(c1cc(F)ccc1F)S(=O)(=O)c1ccc(Cl)cc1` (stereo not drawn) [Example 136, 2-[[(4-Chlorophenyl)sulfonyl]-(2,5-difluorophenyl)methyl]-3-methylpyridine] are 142 to 143 °C and at least 7.30.
Taken in the same sequence, the figures for `O=S(=O)(c1ccc(Cl)cc1)C(c1cccnc1)c1cc(F)ccc1F` (stereo not drawn) [Example 141, 3-[[(4-Chlorophenyl)sulfonyl]-(2,5-difluorophenyl)methyl]pyridine] were 130 to 131 °C and 6.30 to 7.30.
Taken in the same sequence, the figures for `O=S(=O)(c1ccc(Cl)cc1)C(c1ccncc1)c1cc(F)ccc1F` (stereo not drawn) [Example 142, 4-[[(4-Chlorophenyl)sulfonyl]-(2,5-difluorophenyl)methyl]pyridine] were 126 to 127 °C and 6.30 to 7.30.
`O=S(=O)(c1ccc(Cl)cc1)C(c1cc(F)ccc1F)C1CCOCC1` (stereo not drawn) [Example 287, 4-[[(4-Chlorophenyl)sulfonyl](2,5-difluorophenyl)methyl]tetrahydropyran] came in with a melting point of 150 to 152 °C. Further, the pEC50 in series [1] (Homo sapiens, 24 h) is 6.30 to 7.30.
In the same order, the values of `O=S(=O)(c1ccc(Cl)cc1)C(c1cc(F)ccc1F)C1CCSCC1` (stereo not drawn) [Example 288, 4-[[(4-Chlorophenyl)sulfonyl](2,5-difluorophenyl)methyl]tetrahydrothiopyran] are 150 to 152 °C and 6.30 to 7.30.
Take `O=S(=O)(c1ccc(Cl)cc1)C(c1ccc(C2OCCO2)cn1)c1cc(F)ccc1F` (stereo not drawn) [Example 330, 2-[(4-Chlorophenylsulfonyl)-(2,5-difluorophenyl)methyl]-5-(1,3-dioxolan-2-yl)pyridine]: the melting point fell in the range of 167 to 168 °C. The pEC50 in series [1] (Homo sapiens, 24 h) was 6.30 to 7.30.
Taken in the same sequence, the figures for `O=S(=O)(c1ccc(Cl)cc1)C(c1ccc(CO)cn1)c1cc(F)ccc1F` (stereo not drawn) [Example 331, 2-[(4-chlorophenylsulfonyl)(2,5-difluorophenyl)methyl]-5-(hydroxymethyl)pyridine] were 151 to 152 °C and 6.30 to 7.30.
The compound `O=C(O)CCc1ccc(C(c2cc(F)ccc2F)S(=O)(=O)c2ccc(Cl)cc2)nc1` (stereo not drawn) [Example 334, 3-[6-[(4-Chlorophenylsulfonyl)-(2,5-difluorophenyl)methyl]pyridin-3-yl]propionic Acid] returned a melting point of 158 to 160 °C. Further, the pEC50 in series [1] (Homo sapiens, 24 h) is 6.30 to 7.30.
With `O=S(=O)(c1ccc(Cl)cc1)C(c1cc(F)ccc1F)c1ccncc1Cl` (stereo not drawn) [Example 343, 3-Chloro-4-[(4-chlorophenylsulfonyl)-(2,5-difluorophenyl)methyl]pyridine], the melting point was in the range of 160 to 161 °C. Also, in series [1] (Homo sapiens, 24 h), the pEC50 was at least 7.30.
In the same order, the values of `O=S(=O)(c1ccc(Cl)cc1)C(c1cc(F)ccc1F)c1cc(N2CCOCC2)ncc1Cl` (stereo not drawn) [Example 347, 4-[5-Chloro-4-[(4-chlorophenylsulfonyl)-(2,5-difluorophenyl)methyl]pyridin-2-yl]morpholine] are 180 to 181 °C and at least 7.30.
Take `O=S(=O)(c1ccc(Cl)cc1)C(c1cc(F)ccc1F)c1cc(N2CCC(O)CC2)ncc1Cl` (stereo not drawn) [Example 404, 5-Chloro-4-[(4-chlorophenylsulfonyl)-(2,5-difluorophenyl)methyl]-2-(4′-hydroxypiperidin-1′-yl)pyridine]: the melting point fell in the range of 146 to 148 °C. For the same compound, the pEC50 in series [1] (Homo sapiens, 24 h) is at least 7.30.
